Laboratory results published in patent publication US20240173317A1, “METHODS FOR TREATING PROGRESSIVE FAMILIAL INTRAHEPATIC CHOLESTASIS” (MIRUM PHARMACEUTICALS, INC., priority 2022, published 2024).

Columns and labels:
patients with PFIC = test: TEAEs, MARCH-ON long-term extension; format: in vivo, human
Experimental: (§1) Eighty-five patients from MARCH trial enrolled in MARCH-ON (Table 10, FIG. 29A). Forty-seven patients had received Maralixibat (MRX-MRX) and 38 had received placebo (PBO-MRX) during MARCH trial.
(§2) Methods: Long-term maintenance of response was assessed for patients who were originally randomized to receive MRX in MARCH and continued with treatment in MARCH-ON (MRX-MRX group; n=33). MRX response was assessed for patients who received PBO in the MARCH study and switched to open-label MRX in MARCH-ON (PBO-MRX group; n=24). Assessments included: pruritus measured by 0-4 scale of ItchRO[Obs], sBA, bilirubin, and growth z-scores, as well as incidence of treatment-emergent adverse events(TEAEs). Baseline (BL) was defined as the start of MRX for each group.

subjects with PFIC = test: Total and direct bilirubin, MARCH-PFIC Phase 3 study
Excerpt: Estimates are from a mixed model for repeated measures (MMRM) with change from baseline as the dependent variable and fixed categorical effects of treatment group, time period and treatment-by-time period interaction as well as the continuous fixed covariates of average baseline score and baseline score-by-time period interaction. […] Average of time periods Weeks 15-18, 19-22, and 2326 obtained from the MMRM as an equally weighted average of the 3 individual visit-specific estimates.
Methods: MARCH enrolled patients with a genetic diagnosis of PFIC, pruritus, and elevated sBA. Patients were randomized to MRX 57011 g/kg BID or placebo (PBO) for 26 weeks. Changes were determined as the difference between MRX and PBO groups for Change from Baseline (CFB) to the average of the final 3 measurements (Weeks 18, 22 and 26) using a mixed-effects model with recurrent measurements. Total/direct bilirubin (TB/DB) categories were defined as normal (≤1.2/0.3 mg/dL) or abnormal (>1.2/0.3 mg/dL).

[1] = Growth z-scores (height, weight), MARCH-ON long-term extension; format: in vivo, human
Excerpt: as §1
PFIC subtypes of patients included in the study were: non-truncated bile salt export pump (nt-B SEP, n=27), familial intrahepatic cholestasis-associated protein type 1 (F1C1, n=13); multidrug-resistance 3 protein (MDR3, n=9); tight junction protein 2 (TJP2, n=6); myosin VB (MYO5B, n=2); heterozygosis (n=2); truncated B SEP (t-B SEP, n=9); variant not found (n=8), fluctuating sBA (n=2); and surgery (n=7). Efficacy analyses included n=33 in the MRX-MRX group and n=24 in the PRO-MRX group. Subtypes nt-BSEP, F1C1, MDR3, TJP2, and MYO5B were included in the efficacy analyses. Baseline was defined as the start of maralixibat (MRX) treatment for each group.
as §2

[2] = tested on: patients with a truncated BSEP (t-BSEP) deficiency; test: sBA in individual t-BSEP patients (week 26 and week 58 of treatment); format: in vivo, human
participants with ALGS = test: TEAEs in participants with ALGS aged 16 years and older; format: in vivo, human
Excerpt: The efficacy and safety of MRX in participants with ALGS aged ≥16 years transitioning to adult care and participant aged ≥16 years who initiate MRX treatment were studied (FIG. 30). The median (min, max) duration of therapy for participants who initiated MRX at <16 years of age was 4.1 years (1.5, 5.9), with the oldest patient taking MRX (Table 13). Three participants began MRX at ≥16 years of age and were followed for a median of 3.8 years.

[3] = BSEP deficiency cohort, FIG. 20A
[4] = BSEP deficiency cohort, FIG. 22A
[5] = MRX group, post-hoc analysis, FIG. 38A-B
[6] = individuals with abnormal Baseline bilirubin, FIG. 37B
[7] = MRX-MRX group (n = 20), Baseline to Week 52
[8] = PBO-MRX group (n = 15), Baseline to Week 26
[9] = ALGS, aged <16 y at MRX initiation (n = 11), After 16 y
[10] = ALGS, aged <16 y at MRX initiation (n = 11), Before 16 y
[11] = ALGS, aged >16 y at MRX initiation (n = 3)

CCCCC1(CCCC)CS(=O)(=O)c2ccc(N(C)C)cc2[C@@H](c2ccc(OCc3ccc(C[N+]45CCN(CC4)CC5)cc3)cc2)[C@H]1O [maralixibat, 1-(4-((4-((4R,5R)-3,3-dibutyl-7-(dimethylamino)-4-hydroxy-1,1-dioxido-2,3,4,5-tetrahydrobenzo[b]thiepin-5-yl)phenoxy)methyl)benzyl)-1,4-diazabicyclo[2.2.2]octan-1-ium]
Any TEAE, % (patients with PFIC; MRX-MRX (n = 47)): (1M) | Most common TEAE: diarrhoea, % (patients with PFIC; MRX-MRX (n = 47)): (63.8) % | Serious TEAE, % (patients with PFIC; MRX-MRX (n = 47)): (17.0) % | Severe TEAE, % (patients with PFIC; MRX-MRX (n = 47)): (10.6) % | TEAE leading to death, % (patients with PFIC; MRX-MRX (n = 47)): (2.1) % | TEAE leading to discontinuation, % (patients with PFIC; MRX-MRX (n = 47)): (6.4) % | Any TEAE, % (patients with PFIC; PBO-MRX (n = 38)): (92.1) % | Most common TEAE: diarrhoea, % (patients with PFIC; PBO-MRX (n = 38)): (34.2) % | Serious TEAE, % (patients with PFIC; PBO-MRX (n = 38)): (15.0) % | Severe TEAE, % (patients with PFIC; PBO-MRX (n = 38)): (5.3) % | early onset of diarrhea (most frequent TEAE) (patients with PFIC; overall): 51% | new safety signals (patients with PFIC; overall): no new safety signals | CFB in total bilirubin (TB) (subjects with PFIC; All-PFIC cohort (MRX n = 33), average of Weeks 18, 22 and 26, FIG. 36A): -1.1 mg/dL | CFB in direct bilirubin (DB) (subjects with PFIC; All-PFIC cohort (MRX n = 33), average of Weeks 18, 22 and 26, FIG. 36B): -0.8 mg/dL | TB group difference MRX vs PBO (subjects with PFIC; All-PFIC cohort, average of Weeks 18, 22 and 26, FIG. 36A): 2.0 | DB group difference MRX vs PBO (subjects with PFIC; All-PFIC cohort, average of Weeks 18, 22 and 26, FIG. 36B): 1.5 | difference in total bilirubin improvement vs placebo group (subjects with PFIC; [3]): 1.585 mg/dL | improvement in (reduction of) total bilirubin relative to baseline (subjects with PFIC; [3]): about 1.2 mg/dL | difference in direct bilirubin improvement vs placebo group (subjects with PFIC; [4]): 1.196 mg/dL | improvement in (reduction of) direct bilirubin relative to baseline (subjects with PFIC; [4]): over 0.8 mg/dL | TB normalized, patients / patients with abnormal Baseline values (subjects with PFIC; [5]): 10/25 | patients who went from normal to abnormal TB (subjects with PFIC; [5]): 0/7 | DB frequency of normalization (subjects with PFIC; MRX group, post-hoc analysis, normal ≤0.3 mg/dL, FIG. 39): 38% | TB normalized, % of patients with abnormal Baseline values (subjects with PFIC; MRX group, post-hoc analysis, normal ≤1.2 mg/dL, FIG. 38A-B): 40% | difference in total bilirubin improvement vs placebo group (subjects with PFIC; PFIC cohort, FIG. 20B): 2.000 mg/dL | improvement in (reduction of) total bilirubin relative to baseline (subjects with PFIC; PFIC cohort, FIG. 20B): about 1.2 mg/dL | difference in direct bilirubin improvement vs placebo group (subjects with PFIC; PFIC cohort, FIG. 22B): 1.608 mg/dL | improvement in (reduction of) direct bilirubin relative to baseline (subjects with PFIC; PFIC cohort, FIG. 22B): about 0.9 mg/dL | total bilirubin lower than baseline over time (subjects with PFIC; Week 18 and later points in time, FIG. 21A-B): at least 1.0 mg/dL | direct bilirubin lower than baseline over time (subjects with PFIC; Week 18 and later points in time, FIG. 23A-B): at least 1.0 mg/dL | CFB in direct bilirubin (DB) (subjects with PFIC; [6]): -0.8 mg/dL | DB group difference MRX vs PBO (subjects with PFIC; [6]): −1.8 | Height Z-score, mean change from Baseline [1, 7]: +0.54 | Weight Z-score, mean change from Baseline [1, 7]: +0.44 | Height Z-score, mean change from Baseline [1, 8]: +0.46 | Weight Z-score, mean change from Baseline [1, 8]: +0.09 | sBA change in individual t-BSEP patients ([2]; Baseline to Week 26, FIG. 42D): reductions from Baseline to Week 26 in sBA | sBA reduction in individual t-BSEP patients ([2]; all patients receiving maralixibat (MRX-MRX) or switching from placebo (PBO-MRX), Table 15): meaningful sBA reduction | tolerability (participants with ALGS; ALGS participants aged 16 years and older): generally well tolerated | Any TEAEs, % (participants with ALGS; [9]): (63.6) % | Gastrointestinal TEAEs: Abdominal pain, % (participants with ALGS; [9]): (18.2) % | Gastrointestinal TEAEs: Diarrhoea, % (participants with ALGS; [9]): (9.1) % | SAEs, % (participants with ALGS; [9]): (9.1) % | TEAEs > grade 3, % (participants with ALGS; [9]): (9.1) % | Treatment-related AEs, % (participants with ALGS; [9]): (18.2) % | Any TEAEs, % (participants with ALGS; [10]): (100) % | Gastrointestinal TEAEs: Abdominal pain, % (participants with ALGS; [10]): (45.5) % | Gastrointestinal TEAEs: Diarrhoea, % (participants with ALGS; [10]): (54.5) % | SAEs, % (participants with ALGS; [10]): (18.2) % | TEAEs > grade 3, % (participants with ALGS; [10]): (9.1) % | Treatment-related AEs, % (participants with ALGS; [10]): (81.8) % | Any TEAEs, % (participants with ALGS; [11]): (100) % | Gastrointestinal TEAEs: Diarrhoea, % (participants with ALGS; [11]): (33.3) % | TEAEs > grade 3, % (participants with ALGS; [11]): (33.3) % | Treatment-related AEs ≥ grade 3, % (participants with ALGS; [11]): (33.3) % | Treatment-related AEs, % (participants with ALGS; [11]): (66.7) %
